In EP1169044B1, “USE OF FUCOSYLATED SIALYLATED N-ACETYL LACTOSAMINE CARBOHYDRATE STRUCTURES FOR INHIBITION OF BACTERIAL ADHERENCE” (Borén, Thomas, priority 1999, dated 2000):

Key:
Format in all cases: binding, Helicobacter pylori
H. pylori strains = assay: radio immuno analysis (RIA) with 125I-labelled neoglycoconjugates; conditions: strains of Fig. 4 (BabA2 mutant, babA1A2 mutant, CCUG 17875, CCUG 17874), 400 ng conjugate, 30 min
Experimental: Bars, from the left to the right; The sialyl-alfa2.61actose-, sialyl-alfa2.31actose-, sialyl-Lewis a-, sialyl-Lewis x-, and Lewis b-, synthesised sialyl-Lewis x- sialyl-acetyllactosaminee, both with a either a 3 carbon or 14 carbon (extended/hydrophilic) spacer, conjugated to albumin, Finally, the histo-blood group antigen Lewis y (synthesised penta-saccharide) (V. Behar and S.J. Danishefsky, Angew. Chem. Int. Ed. Engi, 1994, 33, no. 14, 1468.), was analysed as a neo-glycoconjugate.
The sialyl-alfa2.3lactose-, sialyl-alfa2.61actose-, sialyl-Lewis a-, and Lewis b-oligosaccharide antigens used for neoglycoconjugate preparations were purified by HPLC, structurally identified and characterized with NMR-spectroscopy, and more than 95% pure. These conjugates were attached to albumin with an APD (acetylphenylenediamine) spacer attached to the carbohydrate by reductive animation and thus the terminal reducing monosaccharide unit of the oligosaccharide is reduced and is present as an aminoalditol, IsoSep AB, Tullinge, Sweden (T. Borén, P. Falk, K. A. Roth, G. Larson, and S. Normark, Science. 262, 1892 (1993), P. D. Rye, Nature Biotechnology 2, 155 (1996)). The synthesised sialyl-Lewis x- tetrasaccharide antigen was conjugated to albumin with the MPE (mercaptopropionyl-amidoethyl) -spacer, IsoSep AB. Synthesised sialyl-Lewis x-tetrasaccharide and sialyl-acetyllactosaminee, both with a either a 3 carbon or 14 carbon (extended/hydrophilic) spacer, conjugated to albumin, were obtained from Dextra Laboratories, Reading, UK. The RIA (Fig. 4) was performed according to (P. Falk, T. Borén, D. Haslam, M. G. Caparon, Meth. Cell Biol. 45, 161 (1994)) with minor modifications; the glycoconjugates were ^125I-labelled by the Chloramine T method. 1 ml of bacteria (A600= OD 0.10) was incubated with 400 ng of ^125I-labelled conjugate (that is an excess of receptor substrate) for 30 min. in phosphate buffered saline (PBS), 0.5 % albumin, 0.05 % Tween-20 (BB-buffer). After centrifugation, the ^125I-activity bound to the bacterial pellet was measured by gamma scintillation counting. Binding experiments were reproducible and performed in triplets. In addition, the level of binding-activity within the strain was stabile.

[1] = test system: 91 Swedish clinical H. pylori isolates; conditions: out of 91 clinical isolates
Experimental: Bacteria were grown at 37°C in 10 % CO2 and 5% O2 (T. Borén, P. Falk, K. A. Roth, G. Larson, and S. Normark, Science.. 262, 1892(1993), for 2 days for optimal Le b antigen binding activity.

[2] = test system: CCUG 17875 and the babA1A2 double mutant; assay: H. pylori adherence to immobilized neoglycoconjugates in ELISA; conditions: strain not specified (CCUG 17875 and babA1A2 double mutant tested)
Experimental: CCUG 17875 (75) and the babA1A2 double mutant (DM) were added to the ELISA in a series labelled A-F. Adherent bacteria were detected by polyclonal rabbit antisera against H. pylori CCUG 17875. The products of the horseradish peroxidase reaction were quantified in a microtiter plate reader.
Sialyl-Lewis a-PAA, sialyl-Lewis x-PAA, 3'-HSO3-Lewis a-PAA, and 3'-HSO3-Lewis x-PAA, i.e. synthesised sialylated or sulphated Lewis antigens conjugated to polyacrylamide backbone were obtained from Syntesome GmbH, Munchen, Germany. The conjugates were added in dilution series of 1µg, 100ng, and 10 ng, in 90µl 1% BSA PBS 0.05% Tween, to streptavidin coated microtiter (ELISA) plates (Roche Diagnostics Scandinavia AB, Bromma, Sweden). After one hour of incubation in room temperature, the plate was blocked over night at 4°C, with 500ng biotinylated albumin in 300µl 1% BSA PBS 0.005% Tween. […] Adherent bacteria were detected by polyclonal rabbit antisera at a dilution of 1:3000, raised against formalin fixed bacteria of strain CCUG 17875 in New Zealand rabbits (Agrisera AB, Vännäsby, Sweden) The antibodies were allowed to incubate in 1% BSA in PBS 0.05% Tween for 30 minutes at room temperature. […] The products of the horseradish peroxidase reaction were quantified in a microtiter plate reader at 490 nm.

Row | Molecule | binding of 125I-labelled neoglycoconjugate (in words) (H. pylori strains) | binding of 125I-labelled neoglycoconjugate (in words) (H. pylori strains; listed as Lewis y pentasacharide antigen) | number of isolates that bound the neoglycoconjugate antigen [1] | binding to immobilised antigen in ELISA (in words) [2]
1 | CC(=O)NC1C(OC2C(O)C(O)OC(CO)C2O)OC(CO)C(OC2OC(CO)C(O)C(O)C2OC2OC(C)C(O)C(O)C2O)C1OC1OC(C)C(O)C(O)C1O (centres unmarked) [Lewis y penta-saccharide antigen, Fucα2Galβ4GlcNAcβ3Gal 3 Fucα1] | did not demonstrate any binding activity | did not detect any binding activity | None | 
2 | HSO3-3Galβ3GlcNAcβ3Galβ4Glc 4 Fucα1 [3'HSO3Lewis a] |  |  |  | no binding above background
3 | HSO3-3Galβ4GlcNAcβ3Galβ4Glc 3 Fucα1 [3'HSO3Lewis x] |  |  |  | no binding above background
